Experimental data from ChEMBL document CHEMBL1201862, “PubChem BioAssay data set” (2004).
The source made the active and inactive calls.

Legend:
[1] = molecular target: Beta Lactamase (Pseudomonas aeruginosa, UniProt Q932Y6); assay: beta-lactamase reporter inhibitor potency, dose response, artefact control for TLR9-MyD88 binding inhibitor project, BLA reporter cells, FRET fluorescence (AID 588341); type: cell-based;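 further: cell based assay in CHO-K1 cells stably expressing beta-lactamase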
[2] = molecular target: T1, Protein RecA (Mycobacterium tuberculosis, UniProt P9WHJ3); assay: Fluorescence Cell-Free Homogeneous Dose Retest to Identify Inhibitors of RecA-Intein Splicing Activity. [Related pubchem assays (depositor defined):AID2097, AID2223, AID489010, AID492950]; type: functional
T1 sequence (P9WHJ3 whole entry): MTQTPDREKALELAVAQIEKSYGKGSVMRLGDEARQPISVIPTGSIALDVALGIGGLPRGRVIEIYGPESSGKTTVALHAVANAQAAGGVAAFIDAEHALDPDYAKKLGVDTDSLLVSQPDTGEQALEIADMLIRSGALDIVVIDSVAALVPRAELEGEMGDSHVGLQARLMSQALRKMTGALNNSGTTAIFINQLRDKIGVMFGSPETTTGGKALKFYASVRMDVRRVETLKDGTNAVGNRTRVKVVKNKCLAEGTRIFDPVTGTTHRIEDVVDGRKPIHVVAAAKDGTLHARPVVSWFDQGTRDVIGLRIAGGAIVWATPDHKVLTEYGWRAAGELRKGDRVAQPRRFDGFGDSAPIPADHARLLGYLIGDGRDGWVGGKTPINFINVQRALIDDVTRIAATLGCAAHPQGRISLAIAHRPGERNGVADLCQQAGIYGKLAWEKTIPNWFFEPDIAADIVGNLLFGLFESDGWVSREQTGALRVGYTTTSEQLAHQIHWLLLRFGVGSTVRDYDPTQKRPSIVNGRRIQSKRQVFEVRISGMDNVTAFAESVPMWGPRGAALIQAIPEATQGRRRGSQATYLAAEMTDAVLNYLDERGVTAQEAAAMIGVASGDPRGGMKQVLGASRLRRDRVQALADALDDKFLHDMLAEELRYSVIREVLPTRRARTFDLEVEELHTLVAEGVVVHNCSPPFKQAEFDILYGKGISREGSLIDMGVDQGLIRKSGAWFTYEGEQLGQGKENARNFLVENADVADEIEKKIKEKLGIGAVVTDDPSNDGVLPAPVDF

[3] = tested on: CHO; assay: cytotoxicity in TLR9-MyD88 CHO cells, dose response, cytotoxicity control for TLR9-MyD88 binding inhibitor project, cell-based, luminescence (AID 588339); type: functional, hamster; settings: Cricetulus griseus;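 further: CHO cells stably coexpressing TLR9 and MyD88 fusions from primary screen; compound exposure lasted 48 hours before viability readout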
[4] = molecular target: Paired box protein Pax-8 (Homo sapiens, UniProt Q06710); assay: inhibitors of PAX8-driven TPO luciferase reporter, dose response, RMG-I cells, cherry-pick (AID 687027); type: functional, cell-based;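 further: luciferase reporter driven by Pax8 target thyroperoxidase promoter measured by SteadyGlo luminescence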
[5] = molecular target: T2, Heat shock factor protein 1 (Mus musculus, UniProt P38532); assay: inhibition of MG132-induced HSE-luciferase signal, confirmation, cell-based, NIH3T3, luminescence, dose retest (AID 2382); type: functional;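 further: NIH3T3 fibroblasts with HSF1-driven luciferase reporter stressed by proteasome inhibitor MG132; luminescence from HSF1-driven luciferase expression after 8 hours of MG132 stress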
T2 sequence (P38532 whole entry): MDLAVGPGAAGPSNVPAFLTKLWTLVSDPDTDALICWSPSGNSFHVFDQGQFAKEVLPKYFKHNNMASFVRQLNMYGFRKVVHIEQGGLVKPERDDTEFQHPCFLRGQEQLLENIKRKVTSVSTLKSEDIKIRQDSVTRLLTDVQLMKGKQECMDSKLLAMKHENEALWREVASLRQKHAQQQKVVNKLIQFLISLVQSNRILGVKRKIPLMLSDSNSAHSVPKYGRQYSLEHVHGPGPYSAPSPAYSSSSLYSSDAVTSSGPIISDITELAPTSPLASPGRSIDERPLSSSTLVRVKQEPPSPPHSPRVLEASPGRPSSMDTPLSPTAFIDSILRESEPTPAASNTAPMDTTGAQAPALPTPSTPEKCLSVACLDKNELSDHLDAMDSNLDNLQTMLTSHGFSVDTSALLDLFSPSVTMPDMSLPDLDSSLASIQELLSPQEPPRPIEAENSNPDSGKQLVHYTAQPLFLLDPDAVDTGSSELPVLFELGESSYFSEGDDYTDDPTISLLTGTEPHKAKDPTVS

[6] = inhibitors of intracellular T. cruzi replication, confirmation, NIH3T3 host cells, beta-gal luminescence (AID 2044); type: functional, cell-based;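 further: intracellular parasites grown in NIH/3T3 mouse fibroblasts as host cells; luminescent beta-galactosidase reporter signal from transgenic T. cruzi replicating inside host cells; inhibitors lower the luminescence signal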
[7] = molecular target: T3, Replicative DNA helicase DnaB (Mycobacterium tuberculosis, UniProt P9WMR3); assay: DnaB intein splicing inhibitors, dose response, biochemical, cell-free fluorescence (AID 449749); type: functional
T3 sequence (P9WMR3 whole entry): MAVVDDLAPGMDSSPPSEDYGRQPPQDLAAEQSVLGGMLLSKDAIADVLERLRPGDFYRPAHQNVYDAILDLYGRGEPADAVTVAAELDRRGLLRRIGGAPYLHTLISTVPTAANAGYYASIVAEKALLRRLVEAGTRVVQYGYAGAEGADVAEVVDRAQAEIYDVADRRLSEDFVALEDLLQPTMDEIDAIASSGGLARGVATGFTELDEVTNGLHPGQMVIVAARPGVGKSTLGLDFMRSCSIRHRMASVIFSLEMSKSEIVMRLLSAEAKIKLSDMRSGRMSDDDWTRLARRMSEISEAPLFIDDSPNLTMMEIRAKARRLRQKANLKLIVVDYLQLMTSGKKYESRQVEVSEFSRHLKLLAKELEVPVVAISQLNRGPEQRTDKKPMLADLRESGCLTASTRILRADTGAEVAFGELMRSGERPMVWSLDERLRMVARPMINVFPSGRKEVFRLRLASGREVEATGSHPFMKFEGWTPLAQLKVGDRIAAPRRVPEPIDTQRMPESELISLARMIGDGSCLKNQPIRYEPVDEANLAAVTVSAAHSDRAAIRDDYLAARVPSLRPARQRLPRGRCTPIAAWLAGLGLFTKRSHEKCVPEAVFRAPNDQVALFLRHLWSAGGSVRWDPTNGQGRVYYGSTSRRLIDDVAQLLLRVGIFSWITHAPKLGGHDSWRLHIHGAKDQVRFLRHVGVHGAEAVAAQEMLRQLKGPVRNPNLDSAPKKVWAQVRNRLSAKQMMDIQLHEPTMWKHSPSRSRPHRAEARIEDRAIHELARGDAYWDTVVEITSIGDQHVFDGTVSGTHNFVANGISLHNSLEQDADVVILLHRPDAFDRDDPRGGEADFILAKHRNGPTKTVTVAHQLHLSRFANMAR

[8] = cytotoxicity toward NIH3T3 fibroblasts, dose response, counter-screen, cell-based, ATP luminescence, mouse fibroblasts (AID 2010); type: functional;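 further: cells exposed to compound for about 90 hours before reading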
[9] = tested on: Jurkat; assay: SAR Analysis of small molecule inhibitors of both B-cell and T-cell specific antigen receptor-induced NF-kB activation in a Jurkat cell line using a luminescence assay. [Related pubchem assays (depositor defined):AID435003, AID435022, AID465, AID489029]; type: functional, cell-based; settings: Homo sapiens
[10] = tested on: HEK293; assay: cytotoxicity in HEK293T NF-kB-Luc cells, SAR follow-up, cytotoxicity control for NF-kB activator project, cell-based, resazurin fluorescence (AID 493251); type: functional; settings: Homo sapiens
[11] = tested on: HEK293; assay: SAR Analysis of small molecule inhibitors of both B-cell and T-cell specific antigen receptor-induced NF-kB activation in a HEK-293T cell line using a luminescence assay. [Related pubchem assays (depositor defined):AID435003, AID435022, AID465, AID489019, AID489029]; type: functional, cell-based; settings: Homo sapiens
[12] = molecular target: T4, Sentrin-specific protease 7 (Homo sapiens, UniProt Q9BQF6); assay: SENP7 protease inhibitors, SAR follow-up, biochemical, luminescence, set 2 (AID 588600); type: functional
T4 sequence (Q9BQF6 whole entry): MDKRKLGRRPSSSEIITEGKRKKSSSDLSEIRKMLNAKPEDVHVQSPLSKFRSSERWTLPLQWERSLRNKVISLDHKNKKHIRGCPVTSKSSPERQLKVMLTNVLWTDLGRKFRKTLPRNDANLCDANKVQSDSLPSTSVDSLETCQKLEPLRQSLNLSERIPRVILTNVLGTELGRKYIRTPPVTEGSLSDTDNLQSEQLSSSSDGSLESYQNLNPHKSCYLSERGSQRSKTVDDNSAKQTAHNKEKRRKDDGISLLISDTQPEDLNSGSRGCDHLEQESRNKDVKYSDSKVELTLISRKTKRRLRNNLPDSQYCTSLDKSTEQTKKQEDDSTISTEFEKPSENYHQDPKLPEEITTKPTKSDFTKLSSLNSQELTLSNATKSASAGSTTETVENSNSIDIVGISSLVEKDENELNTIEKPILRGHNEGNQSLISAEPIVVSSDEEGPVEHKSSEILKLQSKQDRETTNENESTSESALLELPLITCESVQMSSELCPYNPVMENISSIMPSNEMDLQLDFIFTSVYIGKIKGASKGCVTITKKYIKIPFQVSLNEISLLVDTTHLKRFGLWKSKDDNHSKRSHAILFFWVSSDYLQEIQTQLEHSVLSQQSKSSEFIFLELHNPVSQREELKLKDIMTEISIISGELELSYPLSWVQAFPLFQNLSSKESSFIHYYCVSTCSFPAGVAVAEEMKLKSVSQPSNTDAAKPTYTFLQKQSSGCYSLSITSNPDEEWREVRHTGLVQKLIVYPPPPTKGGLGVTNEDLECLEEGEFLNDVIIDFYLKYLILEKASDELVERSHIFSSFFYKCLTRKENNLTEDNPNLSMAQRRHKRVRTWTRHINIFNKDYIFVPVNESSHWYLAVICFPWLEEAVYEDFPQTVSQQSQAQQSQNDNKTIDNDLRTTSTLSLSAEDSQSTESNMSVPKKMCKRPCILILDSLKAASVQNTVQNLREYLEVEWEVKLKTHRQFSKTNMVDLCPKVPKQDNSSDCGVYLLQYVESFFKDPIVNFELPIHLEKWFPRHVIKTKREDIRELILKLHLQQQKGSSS

[13] = molecular target: T5, Sentrin-specific protease 8 (Homo sapiens, UniProt Q96LD8); assay: SENP8 protease inhibitors, SAR follow-up, biochemical, luminescence, set 2 (AID 588601); type: functional
T5 sequence (Q96LD8 whole entry): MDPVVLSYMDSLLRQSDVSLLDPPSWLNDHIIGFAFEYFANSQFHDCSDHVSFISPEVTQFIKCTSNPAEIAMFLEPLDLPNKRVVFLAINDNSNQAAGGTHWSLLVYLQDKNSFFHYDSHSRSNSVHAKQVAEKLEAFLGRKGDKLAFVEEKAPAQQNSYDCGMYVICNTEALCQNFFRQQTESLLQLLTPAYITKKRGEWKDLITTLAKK

[14] = molecular target: T6, Caspase-3 (Homo sapiens, UniProt P42574); assay: caspase-3 inhibitors as off-family protease, SAR follow-up, selectivity assay for SENP protease inhibitor project, biochemical, luminescence, set 2 (AID 588599); type: functional
T6 sequence (P42574 whole entry): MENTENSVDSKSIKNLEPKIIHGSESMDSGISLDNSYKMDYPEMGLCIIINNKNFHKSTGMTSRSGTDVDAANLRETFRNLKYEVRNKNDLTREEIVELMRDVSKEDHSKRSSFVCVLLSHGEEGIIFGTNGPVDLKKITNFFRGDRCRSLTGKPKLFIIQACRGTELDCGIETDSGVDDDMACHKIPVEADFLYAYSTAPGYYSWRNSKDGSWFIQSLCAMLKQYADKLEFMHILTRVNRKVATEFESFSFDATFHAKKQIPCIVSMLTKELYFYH

[15] = molecular target: T7, Sentrin-specific protease 6 (Homo sapiens, UniProt Q9GZR1); assay: SENP6 protease inhibitors, SAR follow-up, biochemical, luminescence, set 2 (AID 588598); type: functional
T7 sequence (Q9GZR1 whole entry): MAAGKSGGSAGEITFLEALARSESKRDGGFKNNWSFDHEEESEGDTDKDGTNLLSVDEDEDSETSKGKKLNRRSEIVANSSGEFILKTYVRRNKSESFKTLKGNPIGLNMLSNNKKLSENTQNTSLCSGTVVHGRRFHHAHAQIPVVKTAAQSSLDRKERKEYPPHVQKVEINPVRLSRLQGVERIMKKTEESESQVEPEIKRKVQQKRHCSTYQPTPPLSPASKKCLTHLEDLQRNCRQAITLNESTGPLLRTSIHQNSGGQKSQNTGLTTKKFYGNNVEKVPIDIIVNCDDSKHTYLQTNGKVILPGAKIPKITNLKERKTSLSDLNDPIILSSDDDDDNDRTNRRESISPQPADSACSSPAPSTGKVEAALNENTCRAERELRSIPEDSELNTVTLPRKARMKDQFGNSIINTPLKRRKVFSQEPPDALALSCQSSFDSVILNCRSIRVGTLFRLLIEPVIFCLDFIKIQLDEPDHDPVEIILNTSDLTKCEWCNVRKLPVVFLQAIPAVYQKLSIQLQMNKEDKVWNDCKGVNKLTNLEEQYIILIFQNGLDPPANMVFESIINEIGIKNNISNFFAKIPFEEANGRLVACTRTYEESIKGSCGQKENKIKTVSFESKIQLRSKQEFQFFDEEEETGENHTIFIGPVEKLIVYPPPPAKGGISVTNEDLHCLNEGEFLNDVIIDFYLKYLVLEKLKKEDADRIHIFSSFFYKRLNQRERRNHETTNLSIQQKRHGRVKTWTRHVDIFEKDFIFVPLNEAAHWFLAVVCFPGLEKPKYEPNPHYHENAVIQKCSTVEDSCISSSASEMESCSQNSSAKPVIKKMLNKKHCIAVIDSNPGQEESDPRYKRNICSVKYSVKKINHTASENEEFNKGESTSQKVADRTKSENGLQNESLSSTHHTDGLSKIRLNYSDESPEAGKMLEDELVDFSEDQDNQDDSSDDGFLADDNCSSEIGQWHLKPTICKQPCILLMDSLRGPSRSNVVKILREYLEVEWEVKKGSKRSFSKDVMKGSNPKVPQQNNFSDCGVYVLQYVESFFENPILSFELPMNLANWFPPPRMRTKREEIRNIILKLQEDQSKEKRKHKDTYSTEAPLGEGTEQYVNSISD

Sequence of Beta Lactamase (Q932Y6 whole entry): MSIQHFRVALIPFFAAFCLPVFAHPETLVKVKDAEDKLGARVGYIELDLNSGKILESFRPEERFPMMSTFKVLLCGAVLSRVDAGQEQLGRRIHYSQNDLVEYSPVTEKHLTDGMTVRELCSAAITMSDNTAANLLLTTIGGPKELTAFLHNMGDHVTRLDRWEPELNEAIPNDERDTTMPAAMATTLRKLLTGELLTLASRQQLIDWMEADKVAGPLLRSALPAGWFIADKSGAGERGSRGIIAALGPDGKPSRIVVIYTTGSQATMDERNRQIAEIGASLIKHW
Sequence of Paired box protein Pax-8 (Q06710 whole entry): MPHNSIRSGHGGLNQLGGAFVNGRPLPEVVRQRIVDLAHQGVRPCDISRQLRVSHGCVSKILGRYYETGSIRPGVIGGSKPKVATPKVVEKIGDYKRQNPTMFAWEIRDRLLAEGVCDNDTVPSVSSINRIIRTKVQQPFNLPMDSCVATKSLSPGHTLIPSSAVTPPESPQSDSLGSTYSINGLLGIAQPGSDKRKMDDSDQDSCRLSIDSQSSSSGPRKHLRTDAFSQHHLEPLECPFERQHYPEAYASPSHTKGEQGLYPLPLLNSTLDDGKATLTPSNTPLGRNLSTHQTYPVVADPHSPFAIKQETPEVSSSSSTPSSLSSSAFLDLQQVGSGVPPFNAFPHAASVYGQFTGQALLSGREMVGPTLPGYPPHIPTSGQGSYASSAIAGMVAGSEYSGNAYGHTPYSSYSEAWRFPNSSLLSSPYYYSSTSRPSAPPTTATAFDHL

Cn1c(=O)c([N+](=O)[O-])c(Cl)c2ccccc21
inactive: IC50 [1] 17.8 µM
active: EC50 [2] 4.25 µM | IC50 [3] 1.18 µM | AC50 [4] 6.65 µM | EC50 [5] 4.3 µM | EC50 [6] 1.87 µM | AC50 [7] 5.18 µM | EC50 [8] 3.97 µM

Cc1ccc2cccc(N)c2n1
inactive: IC50 [9] > 79 µM | IC50 [10] > 80 µM | IC50 [11] > 79 µM

CC(=O)Nc1ccc2nc(NC(=O)c3n[nH]c4ccccc34)sc2c1
active: IC50 [13] 40.3 µM | IC50 [14] 4.41 µM
inactive: IC50 [12] > 99 µM | IC50 [15] > 99 µM
